System: iPSC-derived cortical neurons
Assay type: cell-based
[1] = responders vs non-responders after 10 μM Bupropion, p<0.01
[2] = responders vs non-responders, 10 μM Bupropion, NS
[3] = responders vs non-responders, 10 μM Bupropion, p<0.01

## CC(NC(C)(C)C)C(=O)c1cccc(Cl)c1 (stereo not drawn) [Bupropion, 3-Chloro-N-tert-butyl-β-keto-α-methylphenethylamin]
[1]
  logFC PLCH2: −1.051
  logFC PLD5: −1.909
  logFC PLEKHD1: −3.283
  logFC PLPP4: −0.9989
  logFC PODN: −1.12
  logFC POLR2J3: −0.756
  logFC POU4F1: −1.728
  logFC PRCD: −1.032
  logFC PRPH: −2.033
  logFC PRSS33: −1.593
  logFC PSD4: −0.7234
  logFC PSMB8: −1.14
  logFC PSMB9: −1.682
  logFC PTGDS: −1.612
  logFC PTGER2: −2.59
  logFC RAB42: −0.5093
  logFC RBMS3: −0.8065
  logFC RBP1: −0.6676
  logFC RPH3A: −2.057
  logFC RSAD2: −1.646
  logFC S100B: −1.744
  logFC SAMD9: −1.373
  logFC SAMD9L: −1.954
  logFC SH3TC2: −1.437
  logFC SKOR2: −2.986
  logFC SLC2A1: −0.6362
  logFC SLC4A4: −1.35
  logFC SLC38A3: −0.8613
  logFC SMPD1: −0.5833
  logFC SST: −1.012
  logFC SUN2: −0.4523
  logFC SUSD1: −0.629
  logFC SYNC: −1.688
  logFC TAF1C: −0.387
  logFC TAP1: −0.8369
  logFC TAP2: −0.8068
  logFC TBC1D2: −0.6958
  logFC TF: −1.257
  logFC THBS2: −1.7
  logFC TLR6: −1.138
  logFC TLX1: −2.764
  logFC TLX3: −1.593
  logFC TMC3: −2.021
  logFC TMEM175: −0.5016
  logFC TMEM176A: −1.203
  logFC TMEM176B: −1.184
  logFC TNFRSF14: −1.091
  logFC TRAF1: −0.9274
  logFC TREM1: −2.481
  logFC TRIM8: −0.2802
  logFC TRMT9B: −0.6888
  logFC TRPV2: −1.594
  logFC TSHZ3: −1.109
  logFC USH1C: −1.858
  logFC USP18: −0.9659
  logFC VLDLR: −0.4024
  logFC VSTM2B: −1.079
  logFC ZFPM1: −0.5127
  logFC ZNF575: −0.87
[2]
  logFC ADAMTS9 expression: 0.9659
  logFC ADGRE5 expression: 0.9432
  logFC AMMECR1 expression: 0.7173
  logFC ANKRD1 expression: 2.712
  logFC ANKRD18A expression: 1.155
  logFC ANKRD33B expression: 0.8016
  logFC ANLN expression: 0.911
  logFC AP3B1 expression: 0.7614
  logFC ARHGAP10 expression: 1.24
  logFC ARHGAP11A expression: 0.7121
  logFC ARHGAP19 expression: 0.5865
  logFC ARL11 expression: 0.8189
  logFC BAX expression: 0.4774
  logFC BUB1 expression: 0.6384
  logFC C18orf54 expression: 0.7328
  logFC CD53 expression: 1.712
  logFC CDCA7 expression: 0.949
  logFC CDK1 expression: 0.9851
  logFC CDV3 expression: 0.7482
  logFC CENPA expression: 1.025
  logFC CENPH expression: 0.8278
  logFC CENPW expression: 0.7956
  logFC CHEK2 expression: 0.7669
  logFC CHMP4C expression: 0.6773
  logFC CHTF18 expression: 0.4356
  logFC CKS1B expression: 0.5869
  logFC CKS2 expression: 0.7778
  logFC CNN1 expression: 0.8796
  logFC COL17A1 expression: 1.832
  logFC CPVL expression: 0.8555
  logFC CRYZ expression: 1.044
  logFC CSF3R expression: 2.81
  logFC DAG1 expression: 0.5339
  logFC DCP2 expression: 0.7702
  logFC DEPDC1 expression: 1.005
  logFC DHRS2 expression: 3.271
  logFC DIAPH3 expression: 0.9363
  logFC DLGAP5 expression: 0.8304
  logFC DLX4 expression: 1.485
  logFC DLX5 expression: 2.138
  logFC DNMBP expression: 0.5323
  logFC DSG2 expression: 0.746
  logFC DSG3 expression: 2.297
  logFC DSP expression: 1.327
  logFC DUSP6 expression: 0.9289
  logFC EDA2R expression: 0.569
  logFC EFHD1 expression: 0.872
  logFC EGLN3 expression: 1.216
  logFC ELK3 expression: 0.9378
  logFC EME1 expression: 0.7814
  logFC EPHA7 expression: 1.592
  logFC ERLIN1 expression: 0.5945
  logFC ESAM expression: 1.688
  logFC EXOC3L2 expression: 1.012
  logFC FAM72A expression: 1.123
  logFC FAM72B expression: 0.9318
  logFC FAS expression: 1.079
  logFC FBXO5 expression: 0.7533
  logFC FGF23 expression: 1.468
  logFC FNDC1 expression: 0.9667
  logFC FOSL1 expression: 1.137
  logFC FOXL1 expression: 1.191
  logFC FUT10 expression: 0.6404
  logFC GNPNAT1 expression: 1.06
  logFC GTF2H3 expression: 0.8228
  logFC HACD2 expression: 0.8389
  logFC HAT1 expression: 0.7547
  logFC HDAC1 expression: 0.4991
  logFC HHIPL2 expression: 1.368
  logFC HIBADH expression: 0.5725
  logFC HMGB2 expression: 0.5953
  logFC HMMR expression: 0.9939
  logFC HNMT expression: 1.877
  logFC IMPACT expression: 0.7315
  logFC INPP5D expression: 1.208
  logFC IQGAP3 expression: 0.6692
  logFC ITGA2 expression: 0.6822
  logFC KIAA1217 expression: 0.8875
  logFC KIF2C expression: 0.6989
  logFC KIF11 expression: 0.7863
  logFC KIF14 expression: 0.7995
  logFC KIF20B expression: 0.8251
  logFC KIF23 expression: 0.7114
  logFC KRT8 expression: 1.26
  logFC KRT18 expression: 1.596
  logFC L2HGDH expression: 0.7542
  logFC LAMC1 expression: 0.8644
  logFC LPP expression: 0.7521
  logFC LRP4 expression: 1.051
  logFC LRRC15 expression: 0.6532
  logFC LTA4H expression: 0.6494
  logFC MAD2L1 expression: 0.8373
  logFC MAN2A1 expression: 0.8316
  logFC MATN3 expression: 0.9618
  logFC MDM2 expression: 0.6788
  logFC MELK expression: 0.849
  logFC MGST1 expression: 0.9354
  logFC MICB expression: 0.9474
  logFC MSX2 expression: 1.687
  logFC MT1E expression: 0.1751
  logFC MTBP expression: 0.7803
  logFC MUC4 expression: 0.8705
  logFC NDC1 expression: 0.8188
  logFC NDC80 expression: 0.8291
  logFC NEMP1 expression: 0.791
  logFC NGF expression: 0.7928
  logFC NLRP1 expression: 1.235
  logFC NOSTRIN expression: 1.169
  logFC NPPB expression: 1.671
  logFC NUF2 expression: 0.7214
  logFC NUP37 expression: 0.7592
  logFC NUPR1 expression: 1.745
  logFC ORC6 expression: 0.8019
  logFC PADI1 expression: 0.9659
  logFC PGM2 expression: 0.8787
  logFC PLAU expression: 2.302
  logFC PMP22 expression: 1.525
  logFC POLQ expression: 0.7494
  logFC PPP1R13L expression: 0.8159
  logFC PRDX6 expression: 0.5898
  logFC PROCR expression: 1.393
  logFC PRR11 expression: 0.6089
  logFC PTGR1 expression: 0.6824
  logFC PYGL expression: 0.8577
  logFC RAD51AP1 expression: 1.085
  logFC RBMS1 expression: 0.7861
  logFC RPL22L1 expression: 1.141
  logFC RPS27L expression: 0.7459
  logFC RREB1 expression: 0.5116
  logFC RRM2B expression: 0.7867
  logFC RUNX2 expression: 0.8924
  logFC S1PR5 expression: 1.906
  logFC SELENOV expression: 0.8135
  logFC SEM1 expression: 0.5019
  logFC SEPSECS expression: 0.7254
  logFC SEPTIN10 expression: 0.7236
  logFC SERPINE1 expression: 2.019
  logFC SESN1 expression: 0.7238
  logFC SFT2D1 expression: 0.6487
  logFC SLC22A31 expression: 0.9625
  logFC SLC47A1 expression: 2.056
  logFC SPDL1 expression: 0.7492
  logFC SPOCD1 expression: 1.33
  logFC SPP1 expression: 1.215
  logFC STIL expression: 0.759
  logFC STX3 expression: 0.5017
  logFC SWAP70 expression: 0.8869
  logFC TAF4B expression: 0.9582
  logFC TFPI2 expression: 1.367
  logFC TGIF1 expression: 0.8371
  logFC TM7SF3 expression: 0.5627
  logFC TMTC1 expression: 1.156
  logFC TNFRSF10D expression: 0.8463
  logFC TNFRSF12A expression: 0.7449
  logFC TOP2A expression: 0.7201
  logFC TPM1 expression: 0.7857
  logFC TRAM2 expression: 0.5417
  logFC TRIAP1 expression: 0.7343
  logFC TTK expression: 0.82
  logFC UBE2C expression: 0.5692
  logFC USP28 expression: 0.4989
  logFC USP53 expression: 0.8262
  logFC VRK1 expression: 0.7229
  logFC VWDE expression: 1.176
  logFC WEE1 expression: 1.13
  logFC WNT9B expression: 0.5972
  logFC WWC2 expression: 0.7083
  logFC XPO1 expression: 0.7396
  logFC YBX3 expression: 0.5165
  logFC ZGRF1 expression: 0.9121
  logFC ZIC2 expression: 0.7767
[3]
  logFC ADAL expression: 0.3007
  logFC ANKRD27 expression: 0.3035
  logFC ARHGEF26 expression: 0.4633
  logFC ATAD5 expression: 0.5442
  logFC BAG4 expression: 0.4071
  logFC CCDC150 expression: 0.6042
  logFC CDH6 expression: 0.9224
  logFC CHML expression: 0.4888
  logFC DHFR expression: 0.5987
  logFC DLX2 expression: 0.9412
  logFC DMRTA1 expression: 0.858
  logFC DNA2 expression: 0.5431
  logFC EIF1AX expression: 0.5493
  logFC F8 expression: 0.4608
  logFC FBXO22 expression: 0.2957
  logFC FREM2 expression: 0.865
  logFC GPC3 expression: 1.257
  logFC HAUS6 expression: 0.5025
  logFC HLA-DMA expression: 0.9185
  logFC ITGA6 expression: 0.5208
